Assays:
Hep3B cells = test: Cell viability analysis in Hep3B cells (CellTiter-Glo); assay type: cell-based, human; details: 5d
Protocol: To determine the therapeutic efficacy of compound 40 in HCC cells, we next tested its effect on Hep3B cell viability in combination with the DFG-out Raf inhibitor sorafenib (2 μM).
(§1) For organoid treatment studies, digestion of organoids was performed using TrypLE Express (Gibco) supplemented with 100 μg/mL DNaseI and 10.5 μM Y-27632 dihydrochloride (Invitrogen) at 37 °C, and afterward, single-cells were plated in white 96 well plates (Sarstedt) in a mixture of 10% Matrigel (Growth Factor Reduced (GFR) Matrigel, Corning) in culture medium. Cell viability was determined after 5 days of treatment using the CellTiter-Glo 3D Cell Viability Assay Kit (Promega). Cell viability of Hep3B, AML12, and BNL CL.2 cells was determined after 5 days of treatment in white 96 well plates (Sarstedt) using the CellTiter-Glo 2.0 Cell Viability Assay Kit (Promega). AML12 and BNL CL.2 cells were also obtained from the American Type Culture Collection. The luminescence signal was measured using an […] M PLEX plate reader (Tecan) and the Tecan i-control software (v3.9.1). Sodium oleate (Selleckchem) was dissolved in methanol and added to cells at a final concentration of 200 μM.

LXRα = biological target: T1, LXRα (Homo sapiens, UniProt Q13133); test: LXRα-specific LXRE-GFP reporter assay in Hep3B cells (NR1H2 knockout); assay type: cell-based; details: 48h of treatment, GFP by FACS
T1 construct: To measure the activity of the remaining isoform under treatment; endogenous in cells; host or cells: Hep3B (NR1H2 knockout, LXRE-GFP reporter)
T1 sequence (Q13133 1-447): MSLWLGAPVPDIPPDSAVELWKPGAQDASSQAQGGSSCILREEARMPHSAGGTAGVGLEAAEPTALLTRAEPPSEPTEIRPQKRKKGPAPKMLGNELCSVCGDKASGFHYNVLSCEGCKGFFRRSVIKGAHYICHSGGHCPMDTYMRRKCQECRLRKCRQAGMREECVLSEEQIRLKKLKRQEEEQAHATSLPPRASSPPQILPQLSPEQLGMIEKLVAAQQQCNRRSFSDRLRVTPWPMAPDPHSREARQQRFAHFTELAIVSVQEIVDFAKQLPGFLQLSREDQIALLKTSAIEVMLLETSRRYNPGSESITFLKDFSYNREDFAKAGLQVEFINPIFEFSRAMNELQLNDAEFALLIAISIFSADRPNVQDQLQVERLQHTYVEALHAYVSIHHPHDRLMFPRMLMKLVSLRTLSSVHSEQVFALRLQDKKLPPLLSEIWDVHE

BNL CL.2 cells = test: Cell viability analysis in untransformed liver cells BNL CL.2 (CellTiter-Glo); assay type: cell-based; details: BNL CL.2, 5d, with 2 μM sorafenib
Protocol: To further determine the therapeutic potential of compound 40, we analyzed the effect of a combinatorial lipotoxic therapy with this agonist in untransformed liver cells. We applied the well-established untransformed liver cell lines AML12 and BNL CL.2 and subjected them to treatment with 40 in combination with sorafenib.
as §1

LXRβ LBD (GST) = biological target: T2, LXRβ LBD (GST) (Homo sapiens, UniProt P55055); test: Time-resolved LXR FRET assay (LanthaScreen TR-FRET LXRβ assay kit); assay type: biochemical; details: 10 nM LXRβ LBD (GST), read after 6 h; R^2 of fit given; read-out: TR-FRET activity (EC50) LXRβ
T2 construct: 5 nM LXRα LBD (GST); 10 nM LXRβ LBD (GST); purchased ThermoFisher Scientific PV4658
T2 sequence (P55055 222-460 limits assumed): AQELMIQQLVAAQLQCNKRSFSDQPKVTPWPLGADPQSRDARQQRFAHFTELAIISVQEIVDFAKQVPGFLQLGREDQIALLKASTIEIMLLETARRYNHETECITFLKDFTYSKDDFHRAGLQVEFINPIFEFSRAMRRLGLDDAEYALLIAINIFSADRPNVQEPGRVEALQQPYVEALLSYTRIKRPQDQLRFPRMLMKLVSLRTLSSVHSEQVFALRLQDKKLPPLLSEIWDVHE
Protocol: (§2) The biochemical TR-FRET assays were performed using the LanthaScreen TR-FRET LXRα Coactivator Assay Kit, goat (ThermoFisher Scientific, PV4655), and the LanthaScreen TR-FRET LXRβ assay kit, goat (ThermoFisher Scientific, PV4658), according to the manufacturer’s instructions using the following concentrations: 5 nM LXRα LBD (GST); 10 nM LXRβ LBD (GST); 500 nM fluorescein-TRAP220/DRIP-2; 200 nM fluorescein-D22; 10 nM Tb anti-GST antibody. The TR-FRET signals were measured after 6 h using a TECAN SPARK multimode microplate reader with the following settings: first excitation wavelength: 360 nm (bandwidth 35 nm), first emission wavelength: 485 nm (bandwidth 20 nm); second excitation wavelength: 360 nm (bandwidth 35 nm), second emission wavelength: 535 nm (bandwidth 25 nm); integration time: 200 μs; lag time: 100 μs; settle time: 0 ms.

[1] = tested on: SOD1, GADD34 and CHOP (GADD153); test: Western blot of oxidative stress and ER stress response factors in Hep3B cells; assay type: cell-based, human; details: 3 days, with 2 μM sorafenib
Protocol: Proteins were extracted from cells using RIPA buffer, separated by SDS-PAGE, and transferred to PVDF membranes (Amersham Hybond ECL). For protein detection, membranes were incubated with antibodies against LXRα (Novus Biologicals, NBP2–17186, dilution: 1:1000), LXRβ (Cell Signaling Technology, 13519S, clone: D6M9D, dilution: 1:1000), CHOP (Cell Signaling, 2895 (L63F7), dilution: 1:1000), GADD34 (Proteintech, 10449–1-AP, dilution: 1:1000), SOD1 (ThermoFisher Scientific, MA1–105, clone: 8B10, dilution: 1:1000), α-tubulin (Cell Signaling, 2125 clone: 11H10, dilution: 1:5000), and vinculin (Sigma-Aldrich V9131, clone: hVIN-1, dilution: 1:5000) and visualized using the ChemiDoc MP imaging system (Bio-Rad, ImageLab v5.2.1).

LXRα LBD (GST) = biological target: T3, LXRα LBD (GST) (Homo sapiens, UniProt Q13133); test: Time-resolved LXR FRET assay (LanthaScreen TR-FRET LXRα Coactivator Assay Kit); assay type: biochemical; details: 5 nM LXRα LBD (GST), read after 6 h; R^2 of fit given; read-out: TR-FRET activity (EC50) LXRα
T3 construct: 5 nM LXRα LBD (GST); 10 nM LXRβ LBD (GST); purchased ThermoFisher Scientific PV4655
T3 sequence (Q13133 209-447 limits assumed): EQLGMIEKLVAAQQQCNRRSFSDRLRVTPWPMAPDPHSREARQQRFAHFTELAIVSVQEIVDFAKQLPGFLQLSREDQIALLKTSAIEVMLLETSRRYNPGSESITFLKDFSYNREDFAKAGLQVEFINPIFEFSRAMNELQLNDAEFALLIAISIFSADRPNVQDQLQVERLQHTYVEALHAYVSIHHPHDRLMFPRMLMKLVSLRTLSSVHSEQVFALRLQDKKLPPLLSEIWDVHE
Protocol: as §2

- EC50 (LXRα): 0.027 µM
- EC50 (LXRβ LBD (GST)): 0.266 µM
- EC50 (LXRα LBD (GST)): 0.042 µM
Structure (SMILES): O=C1C(Nc2ccc(N3CCCCC3)cc2)=C(c2ccccc2)C(=O)N1Cc1ccccc1 [Compound 40, 1-Benzyl-3-phenyl-4-((4-(piperidin-1-yl)phenyl)amino)-1H-pyrrole-2,5-dione]
- effect of sodium oleate on efficacy of the combination with sorafenib (Hep3B cells; 2 μM sorafenib ± 200 μM sodium oleate): strongly diminished the therapeutic efficacy
- therapeutic effect on cell viability, monotherapy (Hep3B cells; without sorafenib): did not show a significant therapeutic effect
- sensitivity of untransformed liver cells to combination therapy (cell viability) (BNL CL.2 cells): only very low sensitivity
- induction of SOD1, GADD34 and CHOP [1]: strong induction of all factors

From paper PMC11997999, “Uncovering α-Selectivity for Liver X Receptor Agonists for Lipotoxic Cancer Therapies” (Journal of Medicinal Chemistry, 2025)
